# Results as given in ChEMBL document CHEMBL3232786, “Therapeutic utility of cannabinoid receptor type 2 (CB(2)) selective agonists” (J Med Chem, 2013).
# Key:
# Cannabinoid receptor 1 [1] = molecular target: T1, Cannabinoid receptor 1 (Homo sapiens, UniProt P21554); assay: Displacement of [3H]-CP55940 from human CB1 receptor by liquid scintillation counting in presence of serine protease inhibitor PMSF
# Cannabinoid receptor 2 [2] = molecular target: T2, Cannabinoid receptor 2 (Homo sapiens, UniProt P34972); assay: Agonist activity at human CB2 receptor assessed as inhibition of forskolin-induced cAMP production; assay type: functional
# T2 sequence (P34972 whole entry): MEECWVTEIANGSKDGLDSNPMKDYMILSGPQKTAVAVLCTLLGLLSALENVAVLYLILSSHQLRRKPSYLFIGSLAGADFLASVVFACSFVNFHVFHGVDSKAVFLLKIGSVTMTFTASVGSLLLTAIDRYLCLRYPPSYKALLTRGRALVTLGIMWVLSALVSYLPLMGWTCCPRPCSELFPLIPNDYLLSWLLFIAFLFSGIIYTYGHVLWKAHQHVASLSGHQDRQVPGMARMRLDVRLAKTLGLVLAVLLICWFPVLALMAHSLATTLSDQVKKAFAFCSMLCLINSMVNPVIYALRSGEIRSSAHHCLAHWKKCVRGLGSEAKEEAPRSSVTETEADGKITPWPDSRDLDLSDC
# Cannabinoid receptor 1 [3] = molecular target: T1, Cannabinoid receptor 1; assay: Agonist activity at human CB1 receptor assessed as inhibition of forskolin-induced cAMP production; assay type: functional
# Homo sapiens [4] = species: Homo sapiens; assay: Selectivity ratio of Ki for human CB1 receptor to Ki for human CB2 receptor
# Cannabinoid receptor 1 [5] = molecular target: T1, Cannabinoid receptor 1; assay: Displacement of [3H]-CP55940 from human CB1 receptor transfected in CHO cells after 30 mins by liquid scintillation spectrometry; assay type: cell-based
# Cannabinoid receptor 2 [6] = molecular target: T2, Cannabinoid receptor 2; assay: Displacement of [3H]-CP55940 from human CB2 receptor transfected in CHO cells after 30 mins by liquid scintillation spectrometry; assay type: cell-based
# Cannabinoid receptor 2 [7] = molecular target: T2, Cannabinoid receptor 2; assay: Displacement of [3H]-CP55940 from human CB2 receptor expressed in CHO-K1 cells by liquid scintillation counting; assay type: cell-based
# Cannabinoid receptor 1 [8] = molecular target: T1, Cannabinoid receptor 1; assay: Displacement of [3H]-CP55940 from human CB1 receptor expressed in CHO-K1 cells by liquid scintillation counting; assay type: cell-based; conditions: read-out: EC50 (the source's name)
# [9] = Clearance in rat; assay type: ADME, organism-based; conditions: in vivo
# [10] = molecular target: Transient receptor potential cation channel subfamily V member 1 (Homo sapiens, UniProt Q8NER1); assay: Activation of human VR1 expressed in HEK293 cells assessed as stimulation of Ca2+ influx; assay type: cell-based
# Chain of Transient receptor potential cation channel subfamily V member 1 (Q8NER1 whole entry): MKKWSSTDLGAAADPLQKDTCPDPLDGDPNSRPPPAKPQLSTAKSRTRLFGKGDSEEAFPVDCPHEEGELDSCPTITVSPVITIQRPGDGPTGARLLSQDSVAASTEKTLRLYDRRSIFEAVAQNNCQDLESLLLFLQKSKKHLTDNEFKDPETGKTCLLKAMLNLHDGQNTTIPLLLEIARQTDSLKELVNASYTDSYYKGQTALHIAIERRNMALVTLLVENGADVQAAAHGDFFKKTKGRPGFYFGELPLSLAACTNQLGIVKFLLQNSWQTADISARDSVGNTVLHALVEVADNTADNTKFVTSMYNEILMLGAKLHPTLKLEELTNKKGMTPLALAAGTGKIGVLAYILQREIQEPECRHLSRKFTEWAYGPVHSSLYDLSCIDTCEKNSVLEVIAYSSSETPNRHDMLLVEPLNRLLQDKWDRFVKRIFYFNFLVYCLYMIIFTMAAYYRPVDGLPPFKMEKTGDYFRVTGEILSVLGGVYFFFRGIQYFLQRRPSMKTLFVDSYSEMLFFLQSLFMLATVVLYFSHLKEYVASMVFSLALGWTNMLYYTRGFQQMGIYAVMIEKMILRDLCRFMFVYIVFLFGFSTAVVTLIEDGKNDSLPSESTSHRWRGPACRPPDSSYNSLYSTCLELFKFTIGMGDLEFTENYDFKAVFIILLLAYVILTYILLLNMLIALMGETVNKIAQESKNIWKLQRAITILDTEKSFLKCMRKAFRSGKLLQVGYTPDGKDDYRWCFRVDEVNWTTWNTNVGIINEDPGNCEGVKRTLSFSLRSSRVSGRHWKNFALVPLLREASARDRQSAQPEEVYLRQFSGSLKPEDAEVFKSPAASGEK
# Cannabinoid receptor 2 [11] = molecular target: T2, Cannabinoid receptor 2; assay: Displacement of [3H]-CP55940 from human CB2 receptor expressed in HEK293 cells after 90 mins by liquid scintillation counting; assay type: cell-based
# Cannabinoid receptor 1 [12] = molecular target: T1, Cannabinoid receptor 1; assay: Displacement of [3H]-CP55940 from human CB1 receptor expressed in HEK293 cells after 90 mins by liquid scintillation counting; assay type: cell-based
# Cannabinoid receptor 1 [13] = molecular target: Cannabinoid receptor 1 (Mus musculus, UniProt P47746); assay: Agonist activity at CB1 receptor in Swiss Webster mouse vas deferens assessed as inhibition of electrically-stimulated muscle contraction
# Chain of Cannabinoid receptor 1 (Mus musculus, UniProt P47746) (P47746 whole entry): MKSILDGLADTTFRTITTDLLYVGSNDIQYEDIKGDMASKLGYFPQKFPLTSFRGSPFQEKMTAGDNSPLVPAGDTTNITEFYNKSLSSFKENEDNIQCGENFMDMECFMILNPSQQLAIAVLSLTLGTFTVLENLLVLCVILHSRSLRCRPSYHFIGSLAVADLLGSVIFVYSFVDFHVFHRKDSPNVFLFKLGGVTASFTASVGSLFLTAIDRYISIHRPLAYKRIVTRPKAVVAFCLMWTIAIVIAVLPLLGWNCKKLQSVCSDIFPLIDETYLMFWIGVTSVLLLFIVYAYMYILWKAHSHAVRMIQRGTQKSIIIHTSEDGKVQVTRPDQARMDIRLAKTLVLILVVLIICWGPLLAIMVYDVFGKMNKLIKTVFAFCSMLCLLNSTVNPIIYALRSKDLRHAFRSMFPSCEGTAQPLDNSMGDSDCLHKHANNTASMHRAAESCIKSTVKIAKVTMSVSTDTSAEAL
# Cannabinoid receptor 1 [14] = molecular target: T1, Cannabinoid receptor 1; assay: Binding affinity to human CB1 receptor
# Cannabinoid receptor 2 [15] = molecular target: T2, Cannabinoid receptor 2; assay: Binding affinity to human CB2 receptor
# Cannabinoid receptor 1 [16] = molecular target: T1, Cannabinoid receptor 1; assay: Agonist activity at CB1 receptor (unknown origin) assessed as cAMP production; assay type: functional
# Rattus norvegicus [17] = species: Rattus norvegicus; assay: Antiinflammatory activity in complete Freund's adjuvant-induced-rat; assay type: functional
# Rattus norvegicus [18] = assay: Antinociceptive activity in ip dosed skin incision rat model assessed as tactile allodynia administered 90 mins before skin incision measured after 30 mins; assay type: functional
# Rattus norvegicus [19] = species: Rattus norvegicus; assay: Antiinflammatory activity in rat capsaicin-induced thermal hyperalgesia measured by paw withdrawal latency; assay type: functional
# Rattus norvegicus [20] = species: Rattus norvegicus; assay: Antiinflammatory activity in rat chronic constriction injury model of neuropathic pain; assay type: functional
# Cannabinoid receptor 1 [21] = molecular target: T1, Cannabinoid receptor 1; assay: Displacement of [3H]-CP55940 from human CB1 receptor by liquid scintillation counting
# Cannabinoid receptor 2 [22] = molecular target: T2, Cannabinoid receptor 2; assay: Displacement of [3H]-CP55940 from human CB2 receptor expressed in CHO cells by liquid scintillation counting; assay type: cell-based
# Homo sapiens [23] = species: Homo sapiens; assay: Selectivity ratio of Ki for CB1 human receptor to Ki for human CB2 receptor
# T1 sequence (P21554 whole entry): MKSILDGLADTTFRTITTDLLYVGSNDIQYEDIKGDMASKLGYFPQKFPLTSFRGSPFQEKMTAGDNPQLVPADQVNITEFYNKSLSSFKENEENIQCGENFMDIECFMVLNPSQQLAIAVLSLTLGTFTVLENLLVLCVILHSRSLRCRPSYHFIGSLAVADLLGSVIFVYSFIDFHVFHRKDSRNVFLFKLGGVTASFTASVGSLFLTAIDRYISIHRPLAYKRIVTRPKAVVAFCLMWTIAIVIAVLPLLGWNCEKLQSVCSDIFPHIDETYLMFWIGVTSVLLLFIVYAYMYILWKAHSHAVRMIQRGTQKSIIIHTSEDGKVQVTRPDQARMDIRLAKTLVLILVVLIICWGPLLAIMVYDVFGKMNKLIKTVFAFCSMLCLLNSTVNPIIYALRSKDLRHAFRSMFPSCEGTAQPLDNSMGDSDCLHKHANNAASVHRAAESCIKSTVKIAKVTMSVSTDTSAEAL
structure (smiles),measurement,setting,value
CCCCC/C=C\C/C=C\C/C=C\C/C=C\CCCC(=O)OCCN,Ki,Cannabinoid receptor 1 [1],0.912 µM
O=C(NC12CC3CC(CC(C3)C1)C2)c1nn(-c2ccc(Cl)c(Cl)c2)c2c1CCCC2,EC50,Cannabinoid receptor 2 [2],0.0025 µM
same,EC50,Cannabinoid receptor 1 [3],0.037 µM
CC1=CC[C@@H]2[C@@H](C1)c1c(OC(=O)CCCN3CCOCC3)cc(C(C)(C)CCCCC#N)cc1OC2(C)C,Ratio Ki,Homo sapiens [4],0.36
same,Ki,Cannabinoid receptor 1 [5],0.004 µM
same,Ki,Cannabinoid receptor 2 [6],0.011 µM
Cn1c(C2(C)CC2)c/c(=N\C(=O)c2cc(C(F)(F)F)ccc2OCC(C)(C)O)n1C[C@H]1CCCO1,EC50,Cannabinoid receptor 2 [7],0.00047 µM
same,IC50,Cannabinoid receptor 1 [8],> 27 µM
same,clearance,[9],30 mL/min/kg
same,Ratio Ki,Homo sapiens [4],> 57000
CCCCC/C=C\C/C=C\C/C=C\C/C=C\CCCC(=O)NCCO [ANANDAMIDE],EC50,[10],0.63 µM
CN(C)CCNc1cnn(C2CC(C)(C)CC(C)(C)C2)c(=O)c1Br,Ki,Cannabinoid receptor 2 [11],0.042 µM
same,Ki,Cannabinoid receptor 1 [12],7.41 µM
same,EC50,Cannabinoid receptor 1 [13],0.82 µM
CCCCCCC(C)(C)c1cc(O)c2c(c1)OC(C)(C)[C@@H]1CC=C(C(=O)O)C[C@@H]21 [LENABASUM],Ki,Cannabinoid receptor 1 [14],0.0323 µM
same,Ki,Cannabinoid receptor 2 [15],0.17 µM
same,Ratio Ki,Homo sapiens [4],0.19
same,EC50,Cannabinoid receptor 1 [16],0.927 µM
COCCn1c(C)c(C)s/c1=N\C(=O)C1C(C)(C)C1(C)C,ED50,Rattus norvegicus [17],1.96 µmol/kg
same,ED50,Rattus norvegicus [18],12 µmol/kg
same,ED50,Rattus norvegicus [19],10.4 µmol/kg
same,ED50,Rattus norvegicus [20],12.9 µmol/kg
CCCCCCC(C)(C)c1cc(OC)c([C@]2(O)CCC[C@@H](C)C2)c(OC)c1,Ki,Cannabinoid receptor 1 [21],5.05 µM
same,Ki,Cannabinoid receptor 2 [22],0.0231 µM
same,Ratio Ki,Homo sapiens [23],220
